This note sets out measurements from PubChem BioAssay AID272 (DTP/NCI, 2004).

Values joined by “and” are separate entries in the source; they are usually repeats but may differ in a detail not shown here. Equal entries are not always repeated. Results filed as inconclusive are left out.

In this test the test system is Lewis lung carcinoma i.m., BDF1 mice, T/C %. The test is described as follows: NCI In Vivo Anticancer Drug Screen. Data for tumor model Lewis Lung Carcinoma (intramuscular) in B6D2F1 (BDF1) mice. The gist of the method: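 Mice carrying transplantable tumours received test compound. Survival or tumour size was recorded and expressed as the treated-group value (T) divided by the vehicle-treated control-group value (C).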

The mark [1] stands for this setting: endpoint: mean tumor weight (est.), dose: 100.0 mg/kg/injection, schedule: Q01DX011 (ip), vehicle: saline with Tween-80, higher = larger tumour.
Setting [2] is: endpoint: median survival time, dose: 100.0 mg/kg/injection, schedule: Q01DX011 (ip), vehicle: saline with Tween-80, higher = longer survival.

`Nc1ncnc2c1ncn2Cc1ccccc1`: the T/C (endpoint: mean tumor weight (est.), dose: 12.5 mg/kg/injection, schedule: Q01DX011 (ip), vehicle: saline with Tween-80, higher = larger tumour) was 101 % of control; the T/C (endpoint: mean tumor weight (est.), dose: 25.0 mg/kg/injection, schedule: Q01DX011 (ip), vehicle: saline with Tween-80, higher = larger tumour) was 102 % of control; the T/C (endpoint: mean tumor weight (est.), dose: 50.0 mg/kg/injection, schedule: Q01DX011 (ip), vehicle: saline with Tween-80, higher = larger tumour) is 76 % of control; the T/C under setting [1] was 67 % of control; the T/C (endpoint: median survival time, dose: 12.5 mg/kg/injection, schedule: Q01DX011 (ip), vehicle: saline with Tween-80, higher = longer survival) was 89 % of control; the T/C (endpoint: median survival time, dose: 25.0 mg/kg/injection, schedule: Q01DX011 (ip), vehicle: saline with Tween-80, higher = longer survival) is 100 % of control. Besides, the T/C by setting is: (endpoint: median survival time, dose: 50.0 mg/kg/injection, schedule: Q01DX011 (ip), vehicle: saline with Tween-80, higher = longer survival) 93 % of control; under setting [2], 97 % of control.

`N[C@H](C(=O)O)[C@@H]1CC(Cl)=NO1`: the T/C runs as follows: (endpoint: median survival time, dose: 1.0 mg/kg/injection, schedule: Q01DX013 (ip), vehicle: saline, higher = longer survival) 101 % of control; (endpoint: median survival time, dose: 2.0 mg/kg/injection, schedule: Q01DX013 (ip), vehicle: saline, higher = longer survival) 100 % of control.

On to `COC12C(COC(N)=O)C3=C(C(=O)C(C)=C(N)C3=O)N1CC1C2N1C` (configuration not stated), for which the T/C is, setting by setting: (endpoint: median survival time, dose: 2.0 mg/kg/injection, schedule: Q01DX009 (ip), vehicle: Klucel (hydroxypropylcellulose) (HPC), higher = longer survival) 92 % of control and 105 % of control; (endpoint: median survival time, dose: 2.0 mg/kg/injection, schedule: Q01DX011 (ip), vehicle: saline + alcohol, higher = longer survival) 101 % of control and 111 % of control; (endpoint: median survival time, dose: 4.0 mg/kg/injection, schedule: Q01DX009 (ip), vehicle: Klucel (hydroxypropylcellulose) (HPC), higher = longer survival) 100 % of control and 106 % of control; (endpoint: median survival time, dose: 4.0 mg/kg/injection, schedule: Q01DX011 (ip), vehicle: saline + alcohol, higher = longer survival) 105 % of control.

As to `CC(=O)OCC1OC(n2ncc(=O)[nH]c2=O)C(OC(C)=O)C1OC(C)=O` (configuration not stated), the T/C (endpoint: mean tumor weight (est.), dose: 25.0 mg/kg/injection, schedule: Q01DX011 (ip), vehicle: water, higher = larger tumour) was 89 % of control; the T/C (endpoint: mean tumor weight (est.), dose: 50.0 mg/kg/injection, schedule: Q01DX011 (ip), vehicle: water, higher = larger tumour) is 62 % of control; the T/C (endpoint: mean tumor weight (est.), dose: 200.0 mg/kg/injection, schedule: Q01DX011 (ip), vehicle: water, higher = larger tumour) is 75 % of control; the T/C (endpoint: mean tumor weight (est.), dose: 400.0 mg/kg/injection, schedule: Q01DX011 (ip), vehicle: water, higher = larger tumour) was 85 % of control; the T/C (endpoint: mean tumor weight (est.), dose: 800.0 mg/kg/injection, schedule: Q01DX011 (ip), vehicle: water, higher = larger tumour) is 40 % of control; the T/C (endpoint: mean tumor weight (est.), dose: 1600.0 mg/kg/injection, schedule: Q01DX011 (ip), vehicle: water, higher = larger tumour) is 56 % of control. The T/C (endpoint: mean tumor weight, dose: 25.0 mg/kg/injection, schedule: Q01DX011 (ip), vehicle: Klucel (hydroxypropylcellulose) (HPC), higher = larger tumour) is 78 % of control; the T/C (endpoint: mean tumor weight, dose: 50.0 mg/kg/injection, schedule: Q01DX011 (ip), vehicle: Klucel (hydroxypropylcellulose) (HPC), higher = larger tumour) was 71 % of control; the T/C (endpoint: mean tumor weight, dose: 100.0 mg/kg/injection, schedule: Q01DX011 (ip), vehicle: Klucel (hydroxypropylcellulose) (HPC), higher = larger tumour) is 65 % of control; the T/C (endpoint: mean tumor weight, dose: 200.0 mg/kg/injection, schedule: Q01DX011 (ip), vehicle: Klucel (hydroxypropylcellulose) (HPC), higher = larger tumour) was 68 % of control; the T/C (endpoint: mean tumor weight, dose: 400.0 mg/kg/injection, schedule: Q01DX011 (ip), vehicle: Klucel (hydroxypropylcellulose) (HPC), higher = larger tumour) was 93 % of control; the T/C (endpoint: mean tumor weight, dose: 800.0 mg/kg/injection, schedule: Q01DX011 (ip), vehicle: Klucel (hydroxypropylcellulose) (HPC), higher = larger tumour) was 37 % of control. In addition, the T/C (endpoint: median survival time, dose: 25.0 mg/kg/injection, schedule: Q01DX011 (ip), vehicle: Klucel (hydroxypropylcellulose) (HPC), higher = longer survival) is 110 % of control; the T/C (endpoint: median survival time, dose: 25.0 mg/kg/injection, schedule: Q01DX011 (ip), vehicle: water, higher = longer survival) was 92 % of control; the T/C (endpoint: median survival time, dose: 50.0 mg/kg/injection, schedule: Q01DX011 (ip), vehicle: Klucel (hydroxypropylcellulose) (HPC), higher = longer survival) was 94 % of control; the T/C (endpoint: median survival time, dose: 50.0 mg/kg/injection, schedule: Q01DX011 (ip), vehicle: water, higher = longer survival) is 103 % of control; the T/C (endpoint: median survival time, dose: 100.0 mg/kg/injection, schedule: Q01DX011 (ip), vehicle: Klucel (hydroxypropylcellulose) (HPC), higher = longer survival) was 112 % of control; the T/C (endpoint: median survival time, dose: 200.0 mg/kg/injection, schedule: Q01DX011 (ip), vehicle: water, higher = longer survival) was 98 % of control. The T/C was 104 % of control (endpoint: median survival time, dose: 400.0 mg/kg/injection, schedule: Q01DX011 (ip), vehicle: Klucel (hydroxypropylcellulose) (HPC), higher = longer survival); 121 % of control (endpoint: median survival time, dose: 400.0 mg/kg/injection, schedule: Q01DX011 (ip), vehicle: water, higher = longer survival); 124 % of control (endpoint: median survival time, dose: 800.0 mg/kg/injection, schedule: Q01DX011 (ip), vehicle: Klucel (hydroxypropylcellulose) (HPC), higher = longer survival); 88 % of control (endpoint: median survival time, dose: 800.0 mg/kg/injection, schedule: Q01DX011 (ip), vehicle: water, higher = longer survival); 111 % of control (endpoint: median survival time, dose: 1600.0 mg/kg/injection, schedule: Q01DX011 (ip), vehicle: water, higher = longer survival).

For the molecule `COc1ccc(C(=O)c2cc(OC)c(OC)c(OC)c2)cc1OC`, the T/C was 34 % of control under setting [1]; 51 % of control (endpoint: mean tumor weight (est.), dose: 200.0 mg/kg/injection, schedule: Q01DX011 (ip), vehicle: saline with Tween-80, higher = larger tumour); 43 % of control (endpoint: mean tumor weight (est.), dose: 400.0 mg/kg/injection, schedule: Q01DX011 (ip), vehicle: saline with Tween-80, higher = larger tumour); 93 % of control under setting [2]; 89 % of control (endpoint: median survival time, dose: 200.0 mg/kg/injection, schedule: Q01DX011 (ip), vehicle: saline with Tween-80, higher = longer survival); 108 % of control (endpoint: median survival time, dose: 400.0 mg/kg/injection, schedule: Q01DX011 (ip), vehicle: saline with Tween-80, higher = longer survival).

Regarding `Nc1nc(SCc2ccccc2)c2[nH]cnc2n1`, the T/C (endpoint: mean tumor weight (est.), dose: 0.39 mg/kg/injection, schedule: Q01DX011 (ip), vehicle: saline, higher = larger tumour) was 86 % of control; the T/C (endpoint: mean tumor weight (est.), dose: 0.78 mg/kg/injection, schedule: Q01DX011 (ip), vehicle: saline, higher = larger tumour) was 91 % of control; the T/C (endpoint: mean tumor weight (est.), dose: 1.56 mg/kg/injection, schedule: Q01DX011 (ip), vehicle: saline, higher = larger tumour) is 78 % of control; the T/C (endpoint: mean tumor weight (est.), dose: 6.25 mg/kg/injection, schedule: Q01DX011 (ip), vehicle: saline, higher = larger tumour) was 70 % of control; the T/C (endpoint: mean tumor weight, dose: 0.78 mg/kg/injection, schedule: Q01DX011 (ip), vehicle: Klucel (hydroxypropylcellulose) (HPC), higher = larger tumour) is 105 % of control; the T/C (endpoint: mean tumor weight, dose: 1.56 mg/kg/injection, schedule: Q01DX011 (ip), vehicle: Klucel (hydroxypropylcellulose) (HPC), higher = larger tumour) is 92 % of control. The T/C was 87 % of control (endpoint: mean tumor weight, dose: 3.12 mg/kg/injection, schedule: Q01DX011 (ip), vehicle: Klucel (hydroxypropylcellulose) (HPC), higher = larger tumour); 103 % of control (endpoint: median survival time, dose: 0.39 mg/kg/injection, schedule: Q01DX011 (ip), vehicle: saline, higher = longer survival); 102 % of control (endpoint: median survival time, dose: 1.56 mg/kg/injection, schedule: Q01DX011 (ip), vehicle: Klucel (hydroxypropylcellulose) (HPC), higher = longer survival); 96 % of control (endpoint: median survival time, dose: 1.56 mg/kg/injection, schedule: Q01DX011 (ip), vehicle: saline, higher = longer survival); 111 % of control (endpoint: median survival time, dose: 6.25 mg/kg/injection, schedule: Q01DX011 (ip), vehicle: saline, higher = longer survival).

For the molecule `CNC(=S)N/N=C/C(C)=N/NC(=S)NC`, the T/C is 100 % of control (endpoint: median survival time, dose: 0.2 micrograms/kg/injection, schedule: Q01DX011 (ip), vehicle: saline with Tween-80, higher = longer survival); 102 % of control (endpoint: median survival time, dose: 0.5 micrograms/kg/injection, schedule: Q01DX011 (ip), vehicle: saline with Tween-80, higher = longer survival); 102 % of control (endpoint: median survival time, dose: 1.0 micrograms/kg/injection, schedule: Q01DX011 (ip), vehicle: saline with Tween-80, higher = longer survival).

In the case of `CS(=O)(=O)OCCC(=O)N1CCN(C(=O)CCOS(C)(=O)=O)CC1`, the T/C is 79 % of control (endpoint: mean tumor weight, dose: 12.5 mg/kg/injection, schedule: Q01DX011 (ip), vehicle: saline, higher = larger tumour); 60 % of control (endpoint: mean tumor weight, dose: 25.0 mg/kg/injection, schedule: Q01DX011 (ip), vehicle: saline, higher = larger tumour); 61 % of control (endpoint: mean tumor weight, dose: 50.0 mg/kg/injection, schedule: Q01DX011 (ip), vehicle: saline, higher = larger tumour); 104 % of control (endpoint: median survival time, dose: 12.5 mg/kg/injection, schedule: Q01DX011 (ip), vehicle: saline, higher = longer survival); 97 % of control (endpoint: median survival time, dose: 25.0 mg/kg/injection, schedule: Q01DX011 (ip), vehicle: saline, higher = longer survival).
